Measurements as given in paper PMC9516332 (Frontiers in Oncology, 2022).
Like-named read-outs stand apart in the source and are kept apart here.

Test system: 134 cancer cell lines
Test: Cell viability assay (ATPlite, 72 hours), IC50 on cancer cell line panel

## FC(F)(F)c1ccc(CNc2ccc(Cc3c[nH]c4ncc(Cl)cc34)cn2)cn1 [pexidartinib]
Homo sapiens, MOLM-13, read-out: IC50 in cell proliferation assay, MOLM-13 cell line (FLT3 ITD)
  IC50: 0.191 µM
Homo sapiens, MOLT-4, read-out: IC50 in cell proliferation assay, MOLT-4 cell line
  IC50: > 31.6 µM
Homo sapiens, MV4-11, read-out: IC50 in cell proliferation assay, MV4-11 cell line (FLT3 ITD)
  IC50: 0.254 µM
Homo sapiens, MeWo, read-out: IC50 in cell proliferation assay, MeWo cell line
  IC50: > 31.6 µM
Homo sapiens, NCCIT, read-out: IC50 in cell proliferation assay, NCC-IT cell line
  IC50: > 31.6 µM
Homo sapiens, NCI-H82, read-out: IC50 in cell proliferation assay, cell line NCI-H82
  IC50: > 31.6 µM
Homo sapiens, NCI-H460, read-out: IC50 in cell proliferation assay, NCI-H460 cell line
  IC50: 3.33 µM
Homo sapiens, NCI-H661, read-out: IC50 in cell proliferation assay, NCI-H661 cell line
  IC50: > 31.6 µM
Homo sapiens, NCI-H716, read-out: IC50 in cell proliferation assay, cell line NCI-H716 (FGFR2-COL14A1)
  IC50: 17 µM
Homo sapiens, NCI-H1650, read-out: IC50 in cell proliferation assay, NCI-H1650 cell line (EGFR exon19del)
  IC50: > 31.6 µM
Homo sapiens, NCI-H1975, read-out: IC50 in cell proliferation assay, NCI-H1975 cell line (EGFR p.L858R + p.T790M)
  IC50: > 31.6 µM
Homo sapiens, NCI-H2228, read-out: IC50 in cell proliferation assay, NCI-H2228 cell line (EML4-ALK)
  IC50: > 31.6 µM
Homo sapiens, OVCAR-3, read-out: IC50 in cell proliferation assay, cell line OVCAR-3
  IC50: > 31.6 µM
Homo sapiens, PFSK-1, read-out: IC50 in cell proliferation assay, cell line PFSK-1
  IC50: > 31.6 µM
Homo sapiens, RL95-2, read-out: IC50 in cell proliferation assay, cell line RL95-2 (EGFR p.A289V)
  IC50: > 31.6 µM
Homo sapiens, RPMI-7951, read-out: IC50 in cell proliferation assay, cell line RPMI-7951 (BRAF p.V600E)
  IC50: 26.5 µM
Homo sapiens, RS4-11, read-out: IC50 in cell proliferation assay, cell line RS4;11
  IC50: > 31.6 µM
Homo sapiens, Rec1, read-out: IC50 in cell proliferation assay, cell line REC-1
  IC50: 16 µM
Homo sapiens, SHP77, read-out: IC50 in cell proliferation assay, cell line SHP-77
  IC50: > 31.6 µM
Homo sapiens, SK-BR-3, read-out: IC50 in cell proliferation assay, cell line SK-BR-3 (ERBB2 amplification)
  IC50: > 31.6 µM
Homo sapiens, SK-N-AS, read-out: IC50 in cell proliferation assay, cell line SK-N-AS
  IC50: > 31.6 µM
Homo sapiens, SK-N-FI, read-out: IC50 in cell proliferation assay, cell line SK-N-FI
  IC50: > 31.6 µM
Homo sapiens, SK-N-MC, read-out: IC50 in cell proliferation assay, cell line SK-N-MC
  IC50: > 31.6 µM
Homo sapiens, SK-N-SH, read-out: IC50 in cell proliferation assay, cell line SK-N-SH (ALK p.F1174L)
  IC50: > 31.6 µM
Homo sapiens, SNU-5, read-out: IC50 in cell proliferation assay, cell line SNU-5 (MET amplification)
  IC50: > 31.6 µM
Homo sapiens, SNU-16, read-out: IC50 in cell proliferation assay, cell line SNU-16 (FGFR2 amplification)
  IC50: 8.76 µM
Homo sapiens, SNU-C2B, read-out: IC50 in cell proliferation assay, cell line SNU-C2B (EGFR p.R165Q)
  IC50: > 31.6 µM
Homo sapiens, SU-DHL-1, read-out: IC50 in cell proliferation assay, cell line SU-DHL-1 (NPM1-ALK)
  IC50: > 31.6 µM
Homo sapiens, SU-DHL-6, read-out: IC50 in cell proliferation assay, cell line SU-DHL-6
  IC50: > 31.6 µM
Homo sapiens, SUP-T1, read-out: IC50 in cell proliferation assay, cell line SUP-T1
  IC50: > 31.6 µM
Homo sapiens, SW48, read-out: IC50 in cell proliferation assay, cell line SW48 (EGFR p.G719S)
  IC50: > 31.6 µM
Homo sapiens, SW480, read-out: IC50 in cell proliferation assay, cell line SW480
  IC50: > 31.6 µM
Homo sapiens, SW626, read-out: IC50 in cell proliferation assay, cell line SW626
  IC50: > 31.6 µM
Homo sapiens, SW780, read-out: IC50 in cell proliferation assay, cell line SW780 (FGFR3-BAIAP2L1)
  IC50: 5.07 µM
Homo sapiens, SW837, read-out: IC50 in cell proliferation assay, cell line SW837
  IC50: > 31.6 µM
Homo sapiens, SW872, read-out: IC50 in cell proliferation assay, cell line SW872 (BRAF p.V600E)
  IC50: > 31.6 µM
Homo sapiens, SW900, read-out: IC50 in cell proliferation assay, cell line SW900
  IC50: > 31.6 µM
Homo sapiens, SW948, read-out: IC50 in cell proliferation assay, cell line SW948
  IC50: 19.9 µM
Homo sapiens, SW982, read-out: IC50 in cell proliferation assay, cell line SW982 (BRAF p.V600E)
  IC50: > 31.6 µM
Homo sapiens, SW-620, read-out: IC50 in cell proliferation assay, cell line SW620
  IC50: > 31.6 µM
Homo sapiens, T98G, read-out: IC50 in cell proliferation assay, cell line T98G
  IC50: > 31.6 µM
Homo sapiens, TCC-SUP, read-out: IC50 in cell proliferation assay, cell line TCCSUP
  IC50: > 31.6 µM
Homo sapiens, THP-1, read-out: IC50 in cell proliferation assay, cell line THP-1
  IC50: > 31.6 µM
Homo sapiens, U2OS, read-out: IC50 in cell proliferation assay, cell line U2OS
  IC50: > 31.6 µM
Homo sapiens, U-87 MG, read-out: IC50 in cell proliferation assay, cell line U-87MG ATCC
  IC50: > 31.6 µM
Homo sapiens, U-118-MG, read-out: IC50 in cell proliferation assay, cell line U-118MG
  IC50: > 31.6 µM
Homo sapiens, UMUC3, read-out: IC50 in cell proliferation assay, cell line UM-UC-3
  IC50: > 31.6 µM
Hs766T, read-out: IC50 in cell proliferation assay, Hs 766T cell line
  IC50: > 31.6 µM
L-82, read-out: IC50 in cell proliferation assay, L-82 cell line (NPM1-ALK)
  IC50: > 31.6 µM
Rh30, read-out: IC50 in cell proliferation assay, cell line Rh30
  IC50: > 31.6 µM
read-out: IC50 in cell proliferation assay, 11-18 cell line (EGFR p.L858R)
  IC50: > 31.6 µM
read-out: IC50 in cell proliferation assay, Hs 852.T cell line
  IC50: > 31.6 µM
read-out: IC50 in cell proliferation assay, JAR cell line
  IC50: > 31.6 µM
read-out: IC50 in cell proliferation assay, cell line 5637
  IC50: 18.3 µM
read-out: IC50 in cell proliferation assay, cell line A-388
  IC50: > 31.6 µM
read-out: IC50 in cell proliferation assay, cell line DB
  IC50: > 31.6 µM
read-out: IC50 in cell proliferation assay, cell line DEL (NPM1-ALK)
  IC50: > 31.6 µM
read-out: IC50 in cell proliferation assay, cell line ES-2 (BRAF p.V600E)
  IC50: > 31.6 µM
read-out: IC50 in cell proliferation assay, cell line PA-1
  IC50: 17.3 µM
read-out: IC50 in cell proliferation assay, cell line PC-3
  IC50: > 31.6 µM
read-out: IC50 in cell proliferation assay, cell line RD
  IC50: > 31.6 µM
read-out: IC50 in cell proliferation assay, cell line RKO (BRAF p.V600E)
  IC50: > 31.6 µM
read-out: IC50 in cell proliferation assay, cell line RL
  IC50: > 31.6 µM
read-out: IC50 in cell proliferation assay, cell line RT-4 (FGFR3-TACC3)
  IC50: > 31.6 µM
read-out: IC50 in cell proliferation assay, cell line SR (NPM1-ALK)
  IC50: 27.3 µM
read-out: IC50 in cell proliferation assay, cell line T24
  IC50: > 31.6 µM
read-out: IC50 in cell proliferation assay, cell line TT (RET p.C634W)
  IC50: > 31.6 µM
read-out: IC50 in cell proliferation assay, cell line VA-ES-BJ
  IC50: > 31.6 µM
